Measurements from patent US20200222474A1, “COMPOSITIONS AND METHODS FOR INCREASING PHYTOCHEMICAL BIOAVAILABLITY AND BIOACTIVITY” (North Carolina State University, priority 2017, published 2020).

Columns and labels:
L. acidophilus LA-1 = test: Phenotypic growth assay (OD600); type: cell-based; conditions: SDM + 1% (w/v) carbohydrate (0.5% esculin), 37° C., 30 hours; corrected to medium without carbohydrate
Description: (§1) Phenotypic growth assays were performed using 1% (v/v) overnight cultures of L. acidophilus strains (Table 2) and other Lactobacillus species (Table 3) grown on SDM supplemented with 1% (w/v) glucose to inoculate 200 μL of SDM supplemented with 1% (w/v) of the examined carbohydrate (0.5% in the case of esculin) in 96-well microplate wells (Corning Costar, Corning, N.Y., USA) in duplicate or triplicate wells, respectively. The microplates were sealed with clear adhesive film, incubated at 37° C. in a Fluostar Optima microplate reader (BMG Labtech, Cary, N.C., USA), and the cell optical density (OD600) was monitored for 30 hours.

[1] = system: L. amyloverus ATCC 33620, DSM 20531; test: Phenotypic growth assay (OD600); type: cell-based; conditions: SDM + 1% (w/v) carbohydrate (0.5% esculin), 37° C., 30 hours; corrected to medium without carbohydrate
Description: as §1

L. animalis DSM 20602 = test: Phenotypic growth assay (OD600); type: cell-based; conditions: SDM + 1% (w/v) carbohydrate (0.5% esculin), 37° C., 30 hours; corrected to medium without carbohydrate
Description: as §1

[2] = system: L. crispatus ATCC 33820, DSM 20584; test: Phenotypic growth assay (OD600); type: cell-based; conditions: SDM + 1% (w/v) carbohydrate (0.5% esculin), 37° C., 30 hours; corrected to medium without carbohydrate
Description: as §1

L. fermentum ATCC 14931 = test: Phenotypic growth assay (OD600); type: cell-based; conditions: SDM + 1% (w/v) carbohydrate (0.5% esculin), 37° C., 30 hours; corrected to medium without carbohydrate
Description: as §1

L. gasseri ATCC 33323 = test: Phenotypic growth assay (OD600); type: cell-based; conditions: SDM + 1% (w/v) carbohydrate (0.5% esculin), 37° C., 30 hours; corrected to medium without carbohydrate
Description: as §1

L. helveticus CNRZ32 = test: Phenotypic growth assay (OD600); type: cell-based; conditions: SDM + 1% (w/v) carbohydrate (0.5% esculin), 37° C., 30 hours; corrected to medium without carbohydrate
Description: as §1

[3] = system: L. intestinalis Th4, ATCC 49335, DSM 6629; test: Phenotypic growth assay (OD600); type: cell-based; conditions: SDM + 1% (w/v) carbohydrate (0.5% esculin), 37° C., 30 hours; corrected to medium without carbohydrate
Description: as §1

[4] = system: L. jensenii ATCC 25258, 62G, DSM 20557; test: Phenotypic growth assay (OD600); type: cell-based; conditions: SDM + 1% (w/v) carbohydrate (0.5% esculin), 37° C., 30 hours; corrected to medium without carbohydrate
Description: as §1

L. johnsonii ATCC 33200 = test: Phenotypic growth assay (OD600); type: cell-based; conditions: SDM + 1% (w/v) carbohydrate (0.5% esculin), 37° C., 30 hours; corrected to medium without carbohydrate
Description: as §1

[5] = system: L. plantarum sp. plantarum ATCC 14917, LA70; test: Phenotypic growth assay (OD600); type: cell-based; conditions: SDM + 1% (w/v) carbohydrate (0.5% esculin), 37° C., 30 hours; corrected to medium without carbohydrate
Description: as §1

[6] = system: L. reuteri (ATCC 23272, DSM 20016); test: Phenotypic growth assay (OD600); type: cell-based; conditions: SDM + 1% (w/v) carbohydrate (0.5% esculin), 37° C., 30 hours; corrected to medium without carbohydrate
Description: as §1

[7] = system: L. rhanmosus GG (ATCC 53103); test: Phenotypic growth assay (OD600); type: cell-based; conditions: SDM + 1% (w/v) carbohydrate (0.5% esculin), 37° C., 30 hours; corrected to medium without carbohydrate
Description: as §1

NCK2424 (ΔLBA0726) = test: Phenotypic growth analysis of deletion mutant (phospho-β-glucosidase); type: cell-based, Lactobacillus acidophilus; conditions: compared with background Δupp strain
Description: as §1
Construction of gene deletion mutants. The L. acidophilus NCFM genes LBA0225 and LBA0726, both encoding P-Bgl of glycoside hydrolase family 1 (GH1) enzymes in addition to the LBA0227 and LBA0725 genes encoding an EIIC and an EIICBA components of two PTS systems, respectively, were deleted using the upp-based counterselectable gene replacement system. Briefly, in-frame deletions were constructed by amplifying 650-750 bp of the up- and downstream flanking regions of the deletion targets with two primer pairs (e.g., LBA0225A/LBA0225B and LBA0225C/LBA0225D; Table 4). The resulting purified products were joined by splicing using overlap extension PCR (SOE-PCR63) and amplified to establish the deletion alleles. The SOE-PCR products, that include flanking restriction enzyme sites, were cloned within the BamHI and SacI/EcoRI sites of the pTRK935 integration vector and transformed into E. coli EC101. […]
(§2) To establish the functional significance of these two loci, single deletions of each PTS EII and P-Bgl gene, and a double deletion of both P-Bgl genes were constructed using the upp-based counter-selectable gene replacement system (Table 2) and the growth phenotypes of the mutant strains were analyzed (FIG. 3). […]

[8] = system: NCK2426 (ΔLBA0225ΔLBA0726); test: Phenotypic growth analysis of double phospho-β-glucosidase mutant; type: cell-based, Lactobacillus acidophilus; conditions: compared with background Δupp strain
Description: as §1
Construction of gene deletion mutants. The L. acidophilus NCFM genes LBA0225 and LBA0726, both encoding P-Bgl of glycoside hydrolase family 1 (GH1) enzymes in addition to the LBA0227 and LBA0725 genes encoding an EIIC and an EIICBA components of two PTS systems, respectively, were deleted using the upp-based counterselectable gene replacement system. […]
as §2

Row | Structure (SMILES) | Growth (OD600 max class) of L. acidophilus LA-1 (L. acidophilus LA-1) | Growth (OD600 max class) of L. amyloverus ATCC 33620, DSM 20531 [1] | Growth (OD600 max class) of L. animalis DSM 20602 (L. animalis DSM 20602) | Growth (OD600 max class) of L. crispatus ATCC 33820, DSM 20584 [2] | Growth (OD600 max class) of L. fermentum ATCC 14931 (L. fermentum ATCC 14931) | Growth (OD600 max class) of L. gasseri ATCC 33323 (L. gasseri ATCC 33323) | Growth (OD600 max class) of L. helveticus CNRZ32 (L. helveticus CNRZ32) | Growth (OD600 max class) of L. intestinalis Th4, ATCC 49335, DSM 6629 [3] | Growth (OD600 max class) of L. jensenii ATCC 25258, 62G, DSM 20557 [4] | Growth (OD600 max class) of L. johnsonii ATCC 33200 (L. johnsonii ATCC 33200) | Growth (OD600 max class) of L. plantarum sp. plantarum ATCC 14917, LA70 [5] | Growth (OD600 max class) of L. reuteri (ATCC 23272, DSM 20016) [6] | Growth (OD600 max class) of L. rhanmosus GG (ATCC 53103) [7] | growth of the ΔLBA0726 mutant (P-Bgl) (NCK2424 (ΔLBA0726)) | growth of the double P-Bgl mutant (LBA0225/LBA0726) [8]
1 | N#C[C@H](O[C@@H]1O[C@H](CO[C@@H]2O[C@H](CO)[C@@H](O)[C@H](O)[C@H]2O)[C@@H](O)[C@H](O)[C@H]1O)c1ccccc1 [Amygdalin] | ++ (“++” signifies 0.6 > OD600 max > 0.3.) | − (“−” signifies OD600 max < 0.1.) | − (“−” signifies OD600 max < 0.1.) | − (“−” signifies OD600 max < 0.1.) | − (“−” signifies OD600 max < 0.1.) | − (“−” signifies OD600 max < 0.1.) | + (“+” signifies 0.3 > OD600 max > 0.1.) | − (“−” signifies OD600 max < 0.1.) | + (“+” signifies 0.3 > OD600 max > 0.1.) | − (“−” signifies OD600 max < 0.1.) | +++ (“+++” signifies OD600 max > 0.6.) | − (“−” signifies OD600 max < 0.1.) | +++ (“+++” signifies OD600 max > 0.6.) | severe reduction in growth | abolished
2 | O=c1ccc2cc(O[C@@H]3O[C@H](CO)[C@@H](O)[C@H](O)[C@H]3O)c(O)cc2o1 [Esculin] | +++ (“+++” signifies OD600 max > 0.6.) | − (“−” signifies OD600 max < 0.1.) | + (“+” signifies 0.3 > OD600 max > 0.1.) | ++ (“++” signifies 0.6 > OD600 max > 0.3.) | − (“−” signifies OD600 max < 0.1.) | ++ (“++” signifies 0.6 > OD600 max > 0.3.) | − (“−” signifies OD600 max < 0.1.) | − (“−” signifies OD600 max < 0.1.) | ++ (“++” signifies 0.6 > OD600 max > 0.3.) | − (“−” signifies OD600 max < 0.1.) | ++ (“++” signifies 0.6 > OD600 max > 0.3.) | − (“−” signifies OD600 max < 0.1.) | ++ (“++” signifies 0.6 > OD600 max > 0.3.) | – | –
3 | OCc1ccccc1O[C@@H]1O[C@H](CO)[C@@H](O)[C@H](O)[C@H]1O [Salicin] | +++ (“+++” signifies OD600 max > 0.6.) | − (“−” signifies OD600 max < 0.1.) | + (“+” signifies 0.3 > OD600 max > 0.1.) | +++ (“+++” signifies OD600 max > 0.6.) | − (“−” signifies OD600 max < 0.1.) | ++ (“++” signifies 0.6 > OD600 max > 0.3.) | − (“−” signifies OD600 max < 0.1.) | − (“−” signifies OD600 max < 0.1.) | ++ (“++” signifies 0.6 > OD600 max > 0.3.) | + (“+” signifies 0.3 > OD600 max > 0.1.) | +++ (“+++” signifies OD600 max > 0.6.) | − (“−” signifies OD600 max < 0.1.) | +++ (“+++” signifies OD600 max > 0.6.) | – | –
